How the values were obtained:
Format in all cases: cell-based
[1] = system: PLCγ1-dependent Ca^2+ response to TCR stimulation; assay: Ca^2+ response to TCR stimulation (selectivity); conditions: TAT-CID pretreatment
Procedure: (§1) T cells were loaded with Fura-PE3-AM (1 μM) at room temperature for 30 min in Hank's Balanced Salt Solution (HBSS). After washing, the cells were incubated for 15 min in the absence of Fura-PE3-AM to complete de-esterification of the dye. Cells were placed in the temperature controlled chamber (37° C.) of an inverted epifluorescence microscope (Olympus IX70) equipped with an ×40 UApo/340-1.15 W water-immersion objective (Olympus), and fluorescence micrograph images were captured at 510 nm and 12-bit resolution by a fast-scan camera (CoolSNAP fx Monochrome, Photometrics). To minimize UV light exposure, a 4×4 binning function was used. Fura-PE3 was alternately excited at 340 and 380 nm, and the ratios of the resulting images (emission filter at 520 nm) were produced at constant intervals (10 seconds). The Fura-PE3 ratio (Fratio 340/380) images were analyzed offline with Universal Imaging software, including Metafluor and Metamorph. Fratio reflects the intracellular Ca^2+ concentration changes. Each experiment was repeated 3 times, and the average of more than 20 single-cell traces was analyzed.

[2] = system: MDA-MB-231; assay: Boyden chamber migration of triple negative breast cancer cells; conditions: MDA-MB-231 pre-incubated 1 hour with 10 μM; cl-CD95L 100 ng/mL for 24 h
Procedure: Boyden chambers contained membranes with a pore size of 8 μm (Millipore, Molsheim, France). After hydration of the membranes, breast cancer cells (10^5 cells per chamber) were added to the top chamber in low serum (1%)-containing medium. The bottom chamber was filled with low serum (1%)-containing medium in the presence or absence of cl-CD95L (100 ng/mL). Cells were cultured for 24 h at 37° C. To quantify migration, cells were mechanically removed from the top-side of the membrane using a cotton-tipped swab, and migrating cells from the reverse side were fixed with methanol and stained with Giemsa. For each experiment, five representative pictures were taken for each insert, then cells were lyzed and absorbance at 560 nm correlated to the amount of Giemsa stain was measured.

[3] = system: CD95-mediated Ca^2+ response; assay: Calcium response to cl-CD95L in CEM cells; conditions: CEM pre-incubated 1 hr, 10 μM peptide, 100 ng/ml cl-CD95L
Procedure: Cells were loaded with Fura2-AM (1 μM) at resting temperature for 30 min in Hank's Balanced Salt Solution (HBSS). After washing with HBSS, the cells were incubated for 15 min in the absence of Fura2-AM to complete de-esterification of the dye. Cells were placed in a thermostated chamber (37° C.) of an inverted epifluorescence microscope (Olympus IX70) equipped with a ×40, UApo/340-1.15 W water-immersion objective (Olympus), and fluorescence micrograph images were captured at 510 nm and at 12-bit resolution by a fast-scan camera (CoolSNAP fx Monochrome, Photometrics). To minimize UV light exposure, 4×4 binning function was used. […]
T cells were loaded with Fura-PE3-AM (1 μM) at room temperature for 30 min in Hank's Balanced Salt Solution (HBSS). […] Cells were placed in the temperature controlled chamber (37° C.) of an inverted epifluorescence microscope (Olympus IX70) equipped with an ×40 UApo/340-1.15 W water-immersion objective (Olympus), and fluorescence micrograph images were captured at 510 nm and 12-bit resolution by a fast-scan camera (CoolSNAP fx Monochrome, Photometrics). […] The Fura-PE3 ratio (Fratio 340/380) images were analyzed offline with Universal Imaging software, including Metafluor and Metamorph. […] Each experiment was repeated 3 times, and the average of more than 20 single-cell traces was analyzed.

[4] = system: CD95-mediated Ca^2+ response; assay: Calcium response to cl-CD95L in MDA MB 231 cells; conditions: MDA MB 231 pre-incubated 1 hr, 10 μM peptide; 100 ng/ml cl-CD95L
Procedure: Cells were loaded with Fura2-AM (1 μM) at resting temperature for 30 min in Hank's Balanced Salt Solution (HBSS). After washing with HBSS, the cells were incubated for 15 min in the absence of Fura2-AM to complete de-esterification of the dye. Cells were placed in a thermostated chamber (37° C.) of an inverted epifluorescence microscope (Olympus IX70) equipped with a ×40, UApo/340-1.15 W water-immersion objective (Olympus), and fluorescence micrograph images were captured at 510 nm and at 12-bit resolution by a fast-scan camera (CoolSNAP fx Monochrome, Photometrics). To minimize UV light exposure, 4×4 binning function was used. Fura2-AM was alternately excited at 340 and 380 nm, and ratios of the resulting images (excitations at 340 and 380 nm and emission filter at 520 nm) were produced at constant intervals (5 s or 10 s according to the stimulus). […] Fluorescent images were pseudocolored using the IMD display mode in MetaFluor and assembled without further manipulation in Photoshop (Adobe). Raw data were acquired with MetaFluor and graphed in Origin (OriginLab). […]

[5] = system: murin CD95; assay: Calcium response in mouse CD95-expressing CEM-IRC cells; conditions: CEM-IRC cells reconstituted with wild type mouse CD95
[6] = system: CD95-mediated Ca^2+ response; assay: Calcium response to cl-CD95L in Jurkat cells (Fura2/FuraPE3 video imaging); conditions: Jurkat pre-incubated 1 hr, 10 μM peptide, 100 ng/ml cl-CD95L
Procedure: Cells were loaded with Fura2-AM (1 μM) at resting temperature for 30 min in Hank's Balanced Salt Solution (HBSS). After washing with HBSS, the cells were incubated for 15 min in the absence of Fura2-AM to complete de-esterification of the dye. Cells were placed in a thermostated chamber (37° C.) of an inverted epifluorescence microscope (Olympus IX70) equipped with a ×40, UApo/340-1.15 W water-immersion objective (Olympus), and fluorescence micrograph images were captured at 510 nm and at 12-bit resolution by a fast-scan camera (CoolSNAP fx Monochrome, Photometrics). To minimize UV light exposure, 4×4 binning function was used. Fura2-AM was alternately excited at 340 and 380 nm, and ratios of the resulting images (excitations at 340 and 380 nm and emission filter at 520 nm) were produced at constant intervals (5 s or 10 s according to the stimulus). […] Fluorescent images were pseudocolored using the IMD display mode in MetaFluor and assembled without further manipulation in Photoshop (Adobe). Raw data were acquired with MetaFluor and graphed in Origin (OriginLab). [Ca^2+]i was calculated using the following equation: [Ca^2+]i=Kd(R−Rmin)/(R−Rmax)×Sf2/Sf1, where Kd is the Fura2-AM dissociation constant at the two excitation wavelengths (F340/F380); Rmin is the fluorescence ratio in the presence of minimal calcium, obtained by chelating Ca^2+ with 10 mM EGTA; Rmax is the fluorescence ratio in the presence of excess calcium, obtained by treating cells with 1 μM ionomycin; Sf2 is the fluorescence of the Ca^2+-free form; and Sf1 is the fluorescence of the Ca^2+-bound form of Fura2-AM at excitation wavelengths of 380 and 340 nm, respectively. In some experiments cells were placed in a Ca^2+-free medium consisting of the HBSS described above in which CaCl2 was omitted and 100 μM EGTA was added in order to chelate residual Ca^2+ ions. This medium was added to the cells just before recording to avoid leak of the intracellular calcium stores.
as §1

Substance: TAT-CID: cell penetrating peptide linking the 36-amino acid-stretch of CID (CD95 residues 175 to 210) to the HIV-TAT sequence; SEQ ID NO: 6 (RKKRRQRRRKRKEVQKTCRKHRKENQGSHESPTLNPETVAINLSD; TAT-CID)
- PLCγ1-dependent Ca^2+ response to TCR stimulation [1]: did not alter this signal
- cell migration (Boyden chamber assay) [2]: inhibits migration
- calcium response to cl-CD95L [3]: abolished the induction of the CD95-mediated Ca^2+ signal
- calcium response to cl-CD95L ([3]; listed as TAT CID 175-210): completely abolished the calcium response
- calcium response to cl-CD95L [4]: completely abolished the calcium response
- CD95-mediated Ca^2+ response [5]: failed to inhibit the CD95-mediated Ca^2+ response
- calcium response to cl-CD95L [6]: abolished the induction of the CD95-mediated Ca^2+ signal
- calcium response to cl-CD95L ([6]; listed as TAT CID 175-210): greatly reduced the calcium response
